Data taken from BindingDB's records for doi:10.1021/jm950568w (Universita Di Roma, 1996).

target: T1, Gag-Pol polyprotein [613-1167,R896S,E946D,S1117V]/[618-1043,R896S,E946D] (Human immunodeficiency virus 2, UniProt P04584, E946D/R896S/S1117V); assay: HIV RT Assay; conditions: pH 7.8; 37 °C
T1 construct: 613-1167; 618-1043
T1 sequence (P04584 613-1167, looked up, stated change not applied): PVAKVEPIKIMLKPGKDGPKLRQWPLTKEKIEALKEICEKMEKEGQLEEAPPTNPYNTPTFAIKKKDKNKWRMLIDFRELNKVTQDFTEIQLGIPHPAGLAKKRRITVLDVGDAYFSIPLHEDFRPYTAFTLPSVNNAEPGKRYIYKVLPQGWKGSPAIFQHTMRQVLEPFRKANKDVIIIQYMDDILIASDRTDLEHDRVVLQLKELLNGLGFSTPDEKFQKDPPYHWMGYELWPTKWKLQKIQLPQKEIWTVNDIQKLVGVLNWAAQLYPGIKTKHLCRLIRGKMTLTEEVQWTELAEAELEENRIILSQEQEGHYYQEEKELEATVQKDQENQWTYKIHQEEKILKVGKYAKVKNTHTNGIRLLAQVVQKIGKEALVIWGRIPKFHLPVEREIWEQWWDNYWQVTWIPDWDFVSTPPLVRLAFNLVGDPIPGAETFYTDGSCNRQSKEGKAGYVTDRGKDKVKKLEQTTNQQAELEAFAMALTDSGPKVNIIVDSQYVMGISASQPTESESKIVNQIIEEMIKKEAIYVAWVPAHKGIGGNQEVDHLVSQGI
T1 sequence (P04584 618-1043, looked up, stated change not applied): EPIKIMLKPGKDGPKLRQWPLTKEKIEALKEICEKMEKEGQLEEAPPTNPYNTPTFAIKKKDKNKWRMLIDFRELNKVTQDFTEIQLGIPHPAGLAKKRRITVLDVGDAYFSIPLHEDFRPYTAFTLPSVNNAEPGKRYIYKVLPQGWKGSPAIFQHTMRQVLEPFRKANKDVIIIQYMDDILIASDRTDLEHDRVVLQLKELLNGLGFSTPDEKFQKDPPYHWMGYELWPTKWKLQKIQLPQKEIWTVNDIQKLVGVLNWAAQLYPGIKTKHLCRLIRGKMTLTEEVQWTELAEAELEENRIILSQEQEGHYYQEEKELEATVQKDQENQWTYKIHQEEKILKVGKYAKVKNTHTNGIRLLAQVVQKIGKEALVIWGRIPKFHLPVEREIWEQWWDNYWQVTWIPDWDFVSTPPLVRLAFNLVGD

Compound	IC50
Cc1ccnc2c1NC(=O)c1cccnc1N2C1CC1 [BI-RG-587]	> 20 µM
CCOC(=O)c1cccn1S(=O)(=O)c1cc(Cl)ccc1N [ethyl 1-[(2-amino-5-chlorobenzene)sulfonyl]-1H-pyrrole-2-carboxylate]	> 20 µM
COC(=O)c1cccn1S(=O)(=O)c1cc(Cl)ccc1N [methyl 1-[(2-amino-5-chlorobenzene)sulfonyl]-1H-pyrrole-2-carboxylate]	> 20 µM

target: T2, Gag-Pol polyprotein [588-1027]/[588-1147] (Human immunodeficiency virus 1, UniProt P04585); assay: HIV RT Assay; conditions: pH 7.8; 37 °C
T2 construct: 588-1027; 588-1147

Compound	IC50
CCOC(=O)c1cccn1S(=O)(=O)c1cc(Cl)ccc1NC=O [Ethyl 1-[(5-Chloro-2-formamidophenyl)sulfonyl]-1Hpyrrole-2-carboxylate]	> 20 µM
CCOC(=O)c1cccn1S(=O)(=O)c1cc(Cl)ccc1NC(=O)CC [Ethyl 1-[(5-Chloro-2-propionamidophenyl)sulfonyl]-1H-pyrrole-2-carboxylate]	> 20 µM
CCOC(=O)c1cccn1S(=O)(=O)c1cc(Cl)ccc1NC(C)=O [ethyl 1-[(5-chloro-2-acetamidobenzene)sulfonyl]-1H-pyrrole-2-carboxylate]	> 20 µM
CCOC(=O)CC(=O)Nc1ccc(Cl)cc1S(=O)(=O)n1cccc1C(=O)OCC [ethyl 1-{[5-chloro-2-(ethyl 2-formamidoacetate)benzene]sulfonyl}-1H-pyrrole-2-carboxylate]	> 20 µM
